Laboratory results reported in patent US10342233B2, “Control of aquatic weeds using combinations of 4-amino-3-chloro-6-(4-chloro-2-fluoro-3-methoxyphenyl)pyridine-2-carboxylic acids and other aquatic herbicides” (Dow AgroSciences LLC, priority 2015, dated 2019).
Like-named read-outs stand apart in the source and are kept apart here.

How the values were obtained:
Assay type in all cases: in vivo
[1] = test system: Ischaemum rugosum Salisb. (saramollagrass)
Method: (§1) Weed seeds, nutlets, or vegetative cuttings of the desired test plant species were planted in puddled soil (mud) prepared by mixing a shredded, non-sterilized mineral soil (50.5 percent silt, 25.5 percent clay, and 24 percent sand, with a pH of approximately 7.6 and an organic matter content of approximately 2.9 percent) and water at a 1:1 volumetric ratio. The prepared mud was dispensed in 365 milliliter (mL) aliquots into 480 mL non-perforated plastic pots with a surface area of 86.59 square centimeters (cm^2) leaving a headspace of 3 centimeters (cm) in each pot. Mud was allowed to dry overnight prior to planting or transplanting.
(§2) The aquatic environment was created by filling the 3 cm headspace of the pots with water. […] The plants were grown for 4-20 days in a greenhouse with an approximate 14 hour (h) photoperiod which was maintained at about 29° C. during the day and about 26° C. during the night. Nutrients were added as Osmocote® (19:6:12, N:P:K+minor nutrients) at 2 grams (g) per 480 mL pot. Water was added on a regular basis to maintain the paddy flood, and supplemental lighting was provided with overhead metal halide 1000-Watt lamps as necessary. The plants were employed for testing when they reached the second through fifth true leaf stage or 5th node stage.
(§3) Treatments consisted of the benzyl ester of 4-amino-3-chloro-5-fluoro-6-(4-chloro-2-fluoro-3-methoxy-phenyl)pyridine-2-carboxylic acid (Compound II) formulated as a suspension concentrate (SC) and various herbicidal components alone and in combination.
(§4) Measured amounts of formulated compounds were placed in individual glass vials and were dissolved in an aliquot of an aqueous mixture containing 1.25% volume per volume (v/v) Agri-Dex® crop oil concentrate. A stock solution was prepared for each treatment concentration. Applications were made by injecting an appropriate amount of the application solution into the aqueous layer of the flooded greenhouse pot. Control plants were treated in the same manner with the solvent blank.
(§5) The treated plants and control plants were placed in a greenhouse as described above and water was added as needed to maintain a flood in the pot. After approximately 20 days after application (DAA), the condition of the test plants, compared with that of the untreated plants, was determined visually and scored on a scale of 0 to 100 percent where 0 corresponds to no injury or growth reduction and 100 corresponds to complete kill.

[2] = test system: Alternanthera philoxeroides (Mart.) Griseb. (alligatorweed); assay: Greenhouse in-water herbicidal activity, flooded pot system; settings: ALRPH 5 node, 20 DAA
Method: as §1, §2, §3, §4, §5

[3] = test system: Cyperus esculentus L. (yellow nutsedge); assay: as above; settings: CYPES 4 lf (30% submerged), 20 DAA
Method: as §1, §2, §3, §4, §5

[4] = test system: Leptochloa chinensis (L.) Nees (Chinese sprangletop); settings: LEFCH 5 lf (30% submerged), 20 DAA
Method: as §1, §2, §3, §4, §5

[5] = test system: Echinochloa crus-galli (L.) P. Beauv. (barnyardgrass); settings: ECHCG 2-5 lf (30% submerged), 20 DAA
Method: as §1, §2, §3, §4, §5

[6] = test system: Echinochloa oryzoides (Ard.) Fritsch (early watergrass); assay: Greenhouse in-water herbicidal activity, flooded pot system; settings: ECHOR 2-3 lf (20-30% submerged), 20 DAA
Method: as §1
The aquatic environment was created by filling the 3 cm headspace of the pots with water. When required to ensure good germination and healthy plants, a fungicide treatment and/or other chemical or physical treatment was applied. The plants were grown for 4-20 days in a greenhouse with an approximate 14 hour (h) photoperiod which was maintained at about 29° C. during the day and about 26° C. during the night. Nutrients were added as Osmocote® (19:6:12, N:P:K+minor nutrients) at 2 grams (g) per 480 mL pot. […]
Treatment requirements for each compound or herbicidal component were calculated based upon the rates being tested, the concentration of active ingredient or acid equivalent in the formulation, and a treatment application volume of 2 mL per compound per pot.
Measured amounts of formulated compounds were placed in individual glass vials and were dissolved in an aliquot of an aqueous mixture containing 1.25% volume per volume (v/v) Agri-Dex® crop oil concentrate. […]
as §5

[7] = 4200 ppb (elemental copper basis) in water
[8] = 8300 ppb (elemental copper basis) in water
[9] = 2100 ppb (elemental copper basis) in water

## Cn1cc(-c2ccccc2)c(=O)c(-c2cccc(C(F)(F)F)c2)c1 [Fluridone, 1-methyl-3-phenyl-5-(α,α,α-trifluoro-m-tolyl)-4-pyridone]
[1]; ISCRU 2-3 lf (30-50% submerged), 10 ppb in water, 20 DAA
  Fluridone Mean % Weed Control: 10.0%
[1]; ISCRU 2-3 lf (30-50% submerged), 45 ppb in water, 20 DAA
  Fluridone Mean % Weed Control: 10.0%
[2]; 180 ppb in water
  Fluridone Mean % Weed Control: 65.0%
[3]; 10 ppb in water
  Fluridone Mean % Weed Control: 0.0%
[3]; 45 ppb in water
  Fluridone Mean % Weed Control: 0.0%
[3]; 90 ppb in water
  Fluridone Mean % Weed Control: 0.0%

## O=C(O)C1C2CCC(O2)C1C(=O)O (centres unmarked) [Endothal, 7-oxabicyclo[2.2.1]heptane-2,3-dicarboxylic acid]
[1]; ISCRU 2-3 lf (30-50% submerged), 1120 ppb in water, 20 DAA
  Endothal Mean % Weed Control: 0.0%
[1]; ISCRU 2-3 lf (30-50% submerged), 4480 ppb in water, 20 DAA
  Endothal Mean % Weed Control: 0.0%
[2]; 1120 ppb in water
  Endothal Mean % Weed Control: 0.0%
[2]; 4480 ppb in water
  Endothal Mean % Weed Control: 0.0%
[2]; 8960 ppb in water
  Endothal Mean % Weed Control: 0.0%
[3]; 1120 ppb in water
  Endothal Mean % Weed Control: 0.0%
[3]; 4480 ppb in water
  Endothal Mean % Weed Control: 0.0%

## COc1c(Cl)ccc(-c2nc(C(=O)OCc3ccccc3)c(Cl)c(N)c2F)c1F [Compound II, benzyl 4-amino-3-chloro-5-fluoro-6-(4-chloro-2-fluoro-3-methoxyphenyl)pyridine-2-carboxylate]
[4]; 66.6 ppb in water
  Compound II Mean % Weed Control: 20.0%
[5]; 33.25 ppb in water
  Compound II Mean % Weed Control: 65.0%
[1]; ISCRU 2-3 lf (30-50% submerged), 66.6 ppb in water, 20 DAA
  Compound II Mean % Weed Control: 75.0%
[1]; ISCRU 2-3 lf (30-50% submerged), 133.4 ppb in water, 20 DAA
  Compound II Mean % Weed Control: 85.0%
[6]; 33.3 ppb in water
  Compound II Mean % Weed Control: 25.0%
[6]; 133.4 ppb in water
  Compound II Mean % Weed Control: 78.0%
[2]; 33.25 ppb in water
  Compound II Mean % Weed Control: 55.0%
[2]; 33.3 ppb in water
  Compound II Mean % Weed Control: 55.0%
[2]; 66.6 ppb in water
  Compound II Mean % Weed Control: 68.0%
[3]; 33.25 ppb in water
  Compound II Mean % Weed Control: 18.0%
[3]; 33.3 ppb in water
  Compound II Mean % Weed Control: 18.0%
[3]; 66.6 ppb in water
  Compound II Mean % Weed Control: 68.0%

## c1cc[n+]2c(c1)-c1cccc[n+]1CC2 [Diquat Dibromide, 9,10-dihydro-8a,10a-diazoniaphenanthrene]
[1]; in vivo
  Diquat Dibromide Mean % Weed Control: 0.0%
[6]; 900 ppb in water
  Diquat Dibromide Mean % Weed Control: 0.0%

## mixed copper ethanolamine complex
[4]; [7]
  Mixed Copper Ethanolamine Complex Mean % Weed Control: 0.0%
[4]; [8]
  Mixed Copper Ethanolamine Complex Mean % Weed Control: 0.0%
[5]; [9]
  Mixed Copper Ethanolamine Complex Mean % Weed Control: 0.0%
[5]; [7]
  Mixed Copper Ethanolamine Complex Mean % Weed Control: 0.0%
[5]; [8]
  Mixed Copper Ethanolamine Complex Mean % Weed Control: 0.0%
[1]; ISCRU 2-3 lf (30-50% submerged), 8300 ppb (elemental copper basis) in water, 20 DAA
  Mixed Copper Ethanolamine Complex Mean % Weed Control: 0.0%
[2]; [9]
  Mixed Copper Ethanolamine Complex Mean % Weed Control: 0.0%
[2]; [7]
  Mixed Copper Ethanolamine Complex Mean % Weed Control: 0.0%
[2]; [8]
  Mixed Copper Ethanolamine Complex Mean % Weed Control: 0.0%

## copper(II) sulfate [Copper Sulfate]
[2]; 300 ppb in water
  Copper Sulfate Mean % Weed Control: 0.0%
[2]; 600 ppb in water
  Copper Sulfate Mean % Weed Control: 0.0%
[2]; 900 ppb in water
  Copper Sulfate Mean % Weed Control: 0.0%
[3]; 300 ppb in water
  Copper Sulfate Mean % Weed Control: 0.0%
[3]; 600 ppb in water
  Copper Sulfate Mean % Weed Control: 0.0%
